Source: patent US20080063601A1, “Compositions and methods relating to polycystic kidney disease” (priority 2004, published 2008)
Where two headings read alike, the source gives them in different places.

Columns and labels:
HeLa cells [1] = assay: [3H]-triptolide saturation (specific) binding in HeLa cells; details: 0-100 nM [3H]-triptolide 1 h, non-specific binding with 2 μM cold triptolide, read-out: [3H]-triptolide binding affinity (KD), specific binding
Protocol: Based upon the data above, Applicant next sought to determine if triptolide binding was saturable and if more than one protein (or binding site) was being targeted. Determination of the [^3H]-triptolide binding affinity (KD) and the binding capacity per cell (Bmax) were calculated using a saturation plot. HeLa cells were cultured to 90% confluency and subsequently treated with 0-100 nM of [^3H]-triptolide for one hour. Non-specific binding was defined using 2 μM cold triptolide as competitor. Bmax was calculated to be 99±19 fmol triptolide bound/[…] of triptolide binding sites.
Saturation binding assays were accomplished in HeLa cells adhered on 6-well plates in DMEM+10% FBS. All samples were at least 90% confluent at time of addition of triptolide. Non-specific binding of [^3H]-triptolide was assessed by the pre-incubation of 2 μM (non-labeled) triptolide for one hour. Following cold competition (or DMSO) 5, 10, 20, 50, or 100 nM of [^3H]-triptolide was added into the cultures for an additional one hour, and then cells were lysed and counted for binding activity.

HeLa cells [2] = assay: [3H]-triptolide labeling followed by cellular fractionation; format: binding
Excerpt: To address first the nature of triptolide binding within the cell, Applicant determined this interaction was reversible as [^3H]-triptolide labeling was out competed by subsequent addition of excess unlabeled triptolide (FIG. 4A). […] Although 25% of the total cellular counts (i.e., representing bound triptolide) were found in the cytosolic fraction, it is uncertain whether this is specific binding or simply that free triptolide had dissociated from its binding protein due to experimental manipulation during fractionation. Since the data thus far had only shown binding within whole cells, Applicant next determined if this triptolide binding protein could be further characterized and/or enriched by its association with chromatographic reagents. HeLa cells were once again labeled with [^3H]-triptolide and total cell lysates were then passed over the anion exchange resin DEAE. […] Importantly, Applicant also observed that [^3H]-triptolide would only bind to intact cells in culture but would not bind to any component of a total cellular lysate as assessed by interaction with the DEAE resin. […]
For cellular fractionation studies, cells were allowed to swell on ice and lysed by passage through a syringe in a hypotonic lysis buffer (10 mM Tris-HCl+complete protease inhibitors). […] Gel slices were measured out in equal increments and the molecular weight range of each was calculated. […]

HeLa cells [3] = assay: [3H]-triptolide binding in presence or absence of extracellular calcium
Excerpt: To understand further the nature of triptolide's interaction within the cell, Applicant altered cell culture conditions to examine if [^3H]-triptolide binding would be affected. […] Additionally, it has been established that aberrant calcium signaling can result in cell death (Rizzuto, et al., 2003, Oncogene 22, 8619-8627; Orrenius, et al., 2003, Nat Rev Mol Cell Biol 4, 552-565). Due to triptolide's own link with NFκB and NF-AT and its propensity to induce cell death, Applicant assessed whether triptolide binding could be modulated by free calcium levels. Adherent HeLa cells were cultured in the presence or absence of calcium containing medium for 16 hours before [^3H]-triptolide addition. […] It is also noteworthy that an increase in cell density (not cell number) also increases triptolide binding regardless of calcium levels. Additionally, specific calcium chelation by 10 mM EGTA for one hour in calcium containing medium increased binding by nearly 2 fold.
Labeling studies were performed by the addition of approximately 30 nM [^3H]-triptolide directly into the culture media for one hour at 37° C. […] Total cell lysates were prepared (150 mM NaCl, 50 mM Tris-HCl pH 7.4, 1 mM EDTA, 1% Triton X-100, and Complete™ protease inhibitors (Roche)) and protein was quantitated before measuring the [^3H]-triptolide binding activity via liquid scintillation.

[4] = tested on: Pkd1^−/− murine model of polycystic kidney disease; format: in vivo, mice; details: for Alive Pkd1^−/− (birth): 0.07 mg/kg/day i.p. to pregnant mice; for Alive Pkd1^−/− (birth) / Ave. kidney wet weight Pkd1^−/−: E10.5 until birth; for Ave. kidney wet weight Pkd1^−/−: 0.07 mg/kg/day i.p.
Protocol: As per approved IACUC animal protocol, Pkd1^+/−/Pkd1^+/− mice were mated and pregnant mice were divided into control (DMSO) or experimental (triptolide) groups. A total volume of 100 μl of PBS with no more than 5% DMSO or DMSO/0.07 mg/kg/day triptolide was injected i.p. with a 28 G ½ insulin syringe. Mice were weighed and injected starting at E10.5 until birth. All pups were examined for length and developmental staging such as whisker formation. Kidneys were harvested, weighed, and fixed in 4% paraformaldehyde before histological preparation.
Kidneys were prepared by sagittal cross-sectioning and hematoxylin and eosin staining. All kidneys were photographed under the same magnification (4×) and cystic burden was computed using Image J analysis software (NIH). The area of cysts within the total area of the kidney (pixels) was calculated as a final percentage of cystic burden in the kidney. Immunohistochemical analysis of active caspase-3 was completed as per manufacturer's protocol.
Following successful Pkd1^+/− Pkd1^+/− matings, 0.07 mg/kg/day of triptolide or DMSO control was injected i.p. into pregnant mice until they gave birth. All pups were assessed for viability, length, developmental staging, and wet kidney weight. A total of 59 pups from DMSO treated females and 100 pups from triptolide treated females were examined for multiple parameters, such as genotypic distribution, developmental stage at time of birth, and average kidney weights (Table 1). […] Approximately 20% of all Pkd1^−/− mice were born alive from each treatment group. However, severe edematous abnormalities were obvious upon necropsy.

[5] = Pkd1^−/− pups, 0.07 mg/kg/day i.p. during gestation

CC(C)[C@]12O[C@H]1[C@@H]1O[C@]13[C@]1(O[C@H]1C[C@H]1C4=C(CC[C@@]13C)C(=O)OC4)[C@@H]2O [triptolide]
Kd (HeLa cells [1]): 15.5 ± 0.8 nM | cellular fraction that binds [3H]-triptolide (HeLa cells [2]; S-100, P-100, insoluble fractions): predominantly to the membrane fraction (P-100) | total cellular counts (bound triptolide) found in the cytosolic fraction (HeLa cells [2]; S-100 fraction): 25% | increase of [3H]-triptolide binding on calcium chelation (HeLa cells [3]; 10 mM EGTA 1 h in calcium containing medium): ~2 fold | increase of [3H]-triptolide binding in absence of extracellular calcium (HeLa cells [3]; calcium-free medium 16 h before [3H]-triptolide): 2-4 fold | Alive Pkd1^−/− (birth) [4]: Approximately 20% | Alive Pkd1^−/− (birth) ([4]; listed as Triptolide): 4 (22%) | Ave. kidney wet weight Pkd1^−/− ([4]; mean ± SE): 24.6 ± 0.8 mg | Ave. kidney wet weight Pkd1^−/− ([4]; mean ± SE, listed as Triptolide): 21.8 ± 2.8 mg | active caspase-3 immunoreactivity in kidney sections ([4]; Pkd1^−/− kidneys, 0.07 mg/kg/day i.p. during gestation): did not show any significant activation of the caspase pathway | diameter of cyst lumens on average [4, 5]: smaller | maximum cyst burden [4, 5]: 25% | cystic burden (cyst area as percentage of total kidney area), average ([4]; Pkd1^−/− pups, 0.07 mg/kg/day i.p. during gestation, mean ± SE): 15±2.1% | wet kidney weight or overall size of Pkd1^+/+ or Pkd1^+/− mice versus DMSO ([4]; mouse, in vivo): no significant difference
